Assay results as given in article PMC10732257 (Oncotarget, 2023).

Experiments:
MV-4-11 xenograft = test: Anti-tumor efficacy in subcutaneous MV-4-11 xenograft model; type: in vivo, female BALB/c nude mice
Procedure: Figure 6 Anti-tumor efficacy of GFH009 in MV-4-11 xenograft model. MV-4-11 xenograft in female BALB/c nude mice were treated with GFH009 or enitociclib at the indicated doses (n = 8 mice per group). Results are expressed as mean ± SEM. ^* P < 0.05, ^**** P < 0.0001, two-way ANOVA with Dunnett’s multiple comparisons test analysis compared to Vehicle control group.
In vivo studies of tumor suppression were conducted in female BALB/c nude mice (Beijing Vital River Laboratory Animal Technology Co, Ltd., Changping, Beijing, China) bearing MV-4-11 xenografts (ATCC, Rockville, MD, USA). Each mouse was inoculated subcutaneously into the right dorsal-region with 5.0 × 10^6 cultured MV-4-11 cells in a total volume of 0.2 ml solution and allowed to develop xenograft tumors. Once tumor size had reached […], mice were divided into groups to receive 1 of 8 different treatment preparations dosed intravenously via the tail vein (Table 2). […] Enitociclib was administered as a 1.0 mg/mL solution in ultrapure water with 5% DMSO. Vehicle control was 50 mM PBS with no dissolved treatment drug.
(§1) Animals dosed BIW were given treatments on 2 consecutive days. Weights were recorded for each mouse every day and tumor volumes assessed 3 times a week. Total treatment administration occurred across 3 consecutive weeks.
Subcutaneous tumor volume (TV) was calculated as TV = (L × W^2)/2, where L was the length and W was the width of the tumor [11]. […] TGI was calculated as TGI (%) = (1 – avTi-0/ avCi-0)) × 100, where avTi-0 is the mean TV of the treatment group on a given day minus the mean TV of this treatment group on the day of group assignment, and avCi-0 is the mean TV of the vehicle control group on a given day minus the mean TV of the vehicle control group on the day of group assignment.
Tumor volume data was subjected to a base-10 logarithmic transformation and subsequent comparisons of TV across groups was made using two-way ANOVA (Dunnett’s multiple comparisons test). All plotting and statistical analyses were conducted using GraphPad Prism 6.00 (GraphPad Software).

CDK13/cyclin K = molecular target: T1, CDK13/cyclin K (Homo sapiens, UniProt Q14004); test: CDK family off-target kinase activity (Eurofins); type: biochemical
T1 construct: purchased Eurofins Pharma Discovery Services UK Ltd
T1 sequence (Q14004 whole entry): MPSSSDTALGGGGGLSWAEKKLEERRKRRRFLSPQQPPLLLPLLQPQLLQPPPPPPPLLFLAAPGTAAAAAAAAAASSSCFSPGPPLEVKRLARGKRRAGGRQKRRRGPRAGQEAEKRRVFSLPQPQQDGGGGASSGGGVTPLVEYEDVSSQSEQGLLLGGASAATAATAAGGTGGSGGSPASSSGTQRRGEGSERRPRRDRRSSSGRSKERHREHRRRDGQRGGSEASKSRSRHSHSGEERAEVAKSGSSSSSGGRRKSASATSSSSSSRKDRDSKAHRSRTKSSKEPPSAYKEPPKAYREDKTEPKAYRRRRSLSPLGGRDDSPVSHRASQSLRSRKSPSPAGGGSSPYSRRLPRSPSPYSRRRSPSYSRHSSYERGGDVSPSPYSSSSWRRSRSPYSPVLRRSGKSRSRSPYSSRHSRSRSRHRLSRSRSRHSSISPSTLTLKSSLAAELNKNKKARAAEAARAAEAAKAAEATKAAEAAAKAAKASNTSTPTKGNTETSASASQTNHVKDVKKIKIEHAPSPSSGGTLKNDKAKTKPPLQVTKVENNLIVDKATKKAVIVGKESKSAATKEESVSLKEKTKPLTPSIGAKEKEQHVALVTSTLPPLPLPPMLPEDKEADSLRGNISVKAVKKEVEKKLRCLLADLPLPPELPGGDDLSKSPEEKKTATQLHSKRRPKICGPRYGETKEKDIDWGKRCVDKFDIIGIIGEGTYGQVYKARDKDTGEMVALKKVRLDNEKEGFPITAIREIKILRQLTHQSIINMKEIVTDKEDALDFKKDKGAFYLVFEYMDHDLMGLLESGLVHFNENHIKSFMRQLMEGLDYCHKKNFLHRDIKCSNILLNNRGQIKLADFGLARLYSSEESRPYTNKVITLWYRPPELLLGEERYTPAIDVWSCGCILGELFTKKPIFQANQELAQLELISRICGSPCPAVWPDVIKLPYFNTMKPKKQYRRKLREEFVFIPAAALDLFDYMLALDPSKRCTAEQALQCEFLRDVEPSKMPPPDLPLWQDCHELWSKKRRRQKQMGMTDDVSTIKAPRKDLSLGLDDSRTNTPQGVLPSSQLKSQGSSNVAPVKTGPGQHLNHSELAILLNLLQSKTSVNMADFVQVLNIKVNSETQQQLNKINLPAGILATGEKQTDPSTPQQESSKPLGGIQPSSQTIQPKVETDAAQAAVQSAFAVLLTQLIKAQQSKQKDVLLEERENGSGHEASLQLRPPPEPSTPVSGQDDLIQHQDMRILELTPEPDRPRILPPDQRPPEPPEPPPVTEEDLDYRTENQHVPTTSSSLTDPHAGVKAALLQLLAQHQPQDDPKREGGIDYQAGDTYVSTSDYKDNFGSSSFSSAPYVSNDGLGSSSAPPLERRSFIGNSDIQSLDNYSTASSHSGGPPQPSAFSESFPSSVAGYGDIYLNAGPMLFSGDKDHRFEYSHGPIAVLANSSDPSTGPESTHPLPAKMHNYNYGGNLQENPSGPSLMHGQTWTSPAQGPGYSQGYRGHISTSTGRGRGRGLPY
T1 sequence (O75909 whole entry partner): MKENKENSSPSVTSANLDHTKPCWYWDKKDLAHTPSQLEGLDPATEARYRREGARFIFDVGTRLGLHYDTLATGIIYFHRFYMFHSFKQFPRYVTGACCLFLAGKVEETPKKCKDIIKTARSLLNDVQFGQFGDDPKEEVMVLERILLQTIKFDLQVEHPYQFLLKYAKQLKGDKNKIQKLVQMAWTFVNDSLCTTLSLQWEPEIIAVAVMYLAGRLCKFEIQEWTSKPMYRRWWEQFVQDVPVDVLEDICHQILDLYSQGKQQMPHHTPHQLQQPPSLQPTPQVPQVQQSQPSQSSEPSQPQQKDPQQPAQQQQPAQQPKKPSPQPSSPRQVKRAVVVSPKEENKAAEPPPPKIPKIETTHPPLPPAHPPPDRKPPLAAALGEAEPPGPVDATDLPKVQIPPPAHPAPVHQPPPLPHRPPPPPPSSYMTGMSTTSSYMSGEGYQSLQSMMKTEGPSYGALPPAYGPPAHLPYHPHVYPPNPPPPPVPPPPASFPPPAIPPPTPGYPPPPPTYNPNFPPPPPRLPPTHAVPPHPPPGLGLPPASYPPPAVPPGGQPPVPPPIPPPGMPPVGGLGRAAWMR
Description: The pharmacodynamic and mechanistic foundation for the
CDK9 inhibitor for the treatment of hematologic malignancies
Supplementary Table 1: Inhibitory action of GFH009 on other CDK family members
Various CDK/ Remaining enzymatic activity (%) after
cognate cyclin pairs tested exposure to GFH009 at a concentration of Selectivity vs. CDK9
(also on this page, place not known: www.oncotarget.com Oncotarget, Materials Supplementary)
(1 picture or pasted object on this page, not shown here)

CDK9/cyclin T1(h) = CDK9/cyclin T1(h) (Homo sapiens, UniProt P50750); settings: read-out: IC50 of inhibition of the CDK9/Cyclin T1 complex; radiometric kinase activity
Procedure: Figure 2 Effect of GFH009 on CDK9 enzymatic activity. IC50 of GFH009 inhibition activity against the CDK9/cyclin T1 complex was determined with Eurofin KinaseProfiler radiometric protein kinase activity.
GFH009 inhibition activity against the CDK9/cyclin T1 complex as well as off-target CDK family reactivity were assayed by Eurofins Pharma Discovery Services UK Ltd., (Dundee, UK). Determination of off-target inhibition of other kinases was conducted by DiscoverX LeadHunter Discovery Services (Freemont, CA, USA.) GFH009 reactivity to GPCR family members was assayed by Wuxi AppTech (Shanghai, China).

AD2 (adenosine) = test: GPCR agonist action testing; type: cell-based
Description: (§2) Supplementary Table 2: Results of GPCR agonist action testing of GFH009 administered at a
(§3) Agonist action against GPCR type shown below
(§4) Target % Agonist Effect @ Max Dose
(§5) M1 (muscarinic Ach) −2.18
(§6) M2 (muscarinic Ach) −0.63

op-k (opioid) = op-k (opioid) (Homo sapiens, UniProt P41145); test: GPCR agonist action testing; type: cell-based
Sequence of op-k (opioid) (P41145 whole entry): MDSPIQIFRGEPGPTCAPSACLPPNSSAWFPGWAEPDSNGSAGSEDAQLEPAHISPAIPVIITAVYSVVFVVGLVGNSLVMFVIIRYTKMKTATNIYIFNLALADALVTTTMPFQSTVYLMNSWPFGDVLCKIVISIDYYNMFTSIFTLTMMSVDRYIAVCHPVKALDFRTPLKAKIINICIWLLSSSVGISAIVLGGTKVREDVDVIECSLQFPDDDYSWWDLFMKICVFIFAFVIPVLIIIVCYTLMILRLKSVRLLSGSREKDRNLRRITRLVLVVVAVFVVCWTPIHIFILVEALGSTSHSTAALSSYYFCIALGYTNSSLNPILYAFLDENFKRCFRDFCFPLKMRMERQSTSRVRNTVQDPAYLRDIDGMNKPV
Description: as §2, §3, §4, §5, §6

ETA (endothelin) = molecular target: T2, ETA (endothelin) (Homo sapiens, UniProt P25101); test: GPCR agonist action testing; type: cell-based
T2 construct: Wuxi AppTech (contract laboratory)
Description: as §2, §3, §4, §5, §6

D2 (dopamine) = molecular target: T3, D2 (dopamine) (Homo sapiens, UniProt P14416); test: GPCR agonist action testing; type: cell-based
T3 construct: Wuxi AppTech (contract laboratory)
Description: as §2, §3, §4, §5, §6

H2 (histamine) = H2 (histamine) (Homo sapiens, UniProt P25021); test: GPCR agonist action testing; type: cell-based
Description: as §2, §3, §4, §5, §6

M2 (muscarinic Ach) = M2 (muscarinic Ach) (Homo sapiens, UniProt P08172); test: GPCR agonist action testing; type: cell-based
Sequence of M2 (muscarinic Ach) (P08172 whole entry): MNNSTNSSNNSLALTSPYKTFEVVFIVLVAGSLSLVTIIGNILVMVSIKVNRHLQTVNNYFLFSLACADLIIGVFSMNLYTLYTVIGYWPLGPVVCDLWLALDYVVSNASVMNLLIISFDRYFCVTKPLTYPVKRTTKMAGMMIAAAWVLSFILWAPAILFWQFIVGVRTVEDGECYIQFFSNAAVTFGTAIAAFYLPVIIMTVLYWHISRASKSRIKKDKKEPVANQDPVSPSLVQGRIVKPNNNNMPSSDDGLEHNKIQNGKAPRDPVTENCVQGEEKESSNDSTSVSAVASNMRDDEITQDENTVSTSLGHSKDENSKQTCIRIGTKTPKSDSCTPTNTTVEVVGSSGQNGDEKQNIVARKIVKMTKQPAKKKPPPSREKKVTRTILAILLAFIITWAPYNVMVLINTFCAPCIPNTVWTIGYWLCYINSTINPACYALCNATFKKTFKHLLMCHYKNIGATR
Description: as §2, §3, §4, §5, §6

CCKa = molecular target: T4, CCKa (Homo sapiens, UniProt P32238); test: GPCR agonist action testing; type: cell-based
T4 construct: Wuxi AppTech (contract laboratory)
T4 sequence (P32238 whole entry): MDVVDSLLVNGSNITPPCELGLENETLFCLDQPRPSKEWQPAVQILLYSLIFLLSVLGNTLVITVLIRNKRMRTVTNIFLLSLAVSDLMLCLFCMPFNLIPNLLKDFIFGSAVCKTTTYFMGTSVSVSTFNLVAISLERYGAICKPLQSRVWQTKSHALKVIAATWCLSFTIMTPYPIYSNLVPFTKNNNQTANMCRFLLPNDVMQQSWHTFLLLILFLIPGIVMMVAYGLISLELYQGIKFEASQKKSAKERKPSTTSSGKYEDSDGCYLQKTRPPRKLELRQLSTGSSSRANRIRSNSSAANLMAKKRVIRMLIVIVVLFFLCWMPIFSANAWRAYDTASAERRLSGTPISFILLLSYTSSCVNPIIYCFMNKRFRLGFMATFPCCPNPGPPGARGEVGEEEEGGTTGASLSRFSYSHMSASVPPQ
Description: as §2, §3, §4, §5, §6

op-m (opioid) = op-m (opioid) (Homo sapiens, UniProt P35372); test: GPCR agonist action testing; type: cell-based
Description: as §2, §3, §4, §5, §6

M3 (muscarinic Ach) = M3 (muscarinic Ach) (Homo sapiens, UniProt P20309); test: GPCR agonist action testing; type: cell-based
Sequence of M3 (muscarinic Ach) (P20309 whole entry): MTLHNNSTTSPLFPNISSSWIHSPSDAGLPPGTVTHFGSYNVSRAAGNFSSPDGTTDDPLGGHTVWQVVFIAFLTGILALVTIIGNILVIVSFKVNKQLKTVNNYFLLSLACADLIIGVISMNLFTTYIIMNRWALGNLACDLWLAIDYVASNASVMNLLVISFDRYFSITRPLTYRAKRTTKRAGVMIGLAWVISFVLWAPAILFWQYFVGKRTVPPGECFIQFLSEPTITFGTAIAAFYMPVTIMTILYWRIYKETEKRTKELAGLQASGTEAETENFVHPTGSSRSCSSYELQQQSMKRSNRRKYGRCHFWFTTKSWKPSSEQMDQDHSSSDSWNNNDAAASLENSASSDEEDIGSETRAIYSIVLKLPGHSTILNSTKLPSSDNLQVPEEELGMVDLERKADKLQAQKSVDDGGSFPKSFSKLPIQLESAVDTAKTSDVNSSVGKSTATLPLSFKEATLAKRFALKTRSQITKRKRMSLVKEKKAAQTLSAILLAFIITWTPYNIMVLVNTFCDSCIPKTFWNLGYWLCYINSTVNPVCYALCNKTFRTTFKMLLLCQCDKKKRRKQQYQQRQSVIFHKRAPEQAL
Description: as §2, §3, §4, §5, §6

op-d (opioid) = op-d (opioid) (Homo sapiens, UniProt P41143); test: GPCR agonist action testing; type: cell-based
Sequence of op-d (opioid) (P41143 whole entry): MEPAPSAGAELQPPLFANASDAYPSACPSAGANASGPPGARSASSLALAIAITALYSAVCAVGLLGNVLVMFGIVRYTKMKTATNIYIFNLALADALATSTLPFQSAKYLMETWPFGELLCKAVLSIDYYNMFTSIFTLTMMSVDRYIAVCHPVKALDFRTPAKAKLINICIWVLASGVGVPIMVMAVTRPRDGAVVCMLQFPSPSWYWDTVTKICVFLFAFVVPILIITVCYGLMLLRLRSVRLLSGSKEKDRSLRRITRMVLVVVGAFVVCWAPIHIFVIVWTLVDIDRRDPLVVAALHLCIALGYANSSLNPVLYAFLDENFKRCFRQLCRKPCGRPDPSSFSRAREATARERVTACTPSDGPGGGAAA
Description: as §2, §3, §4, §5, §6

5-HT2A (serotonin) = molecular target: T5, 5-HT2A (serotonin) (Homo sapiens, UniProt P28223); test: GPCR agonist action testing; type: cell-based
T5 construct: Wuxi AppTech (Shanghai, China)
T5 sequence (P28223 whole entry): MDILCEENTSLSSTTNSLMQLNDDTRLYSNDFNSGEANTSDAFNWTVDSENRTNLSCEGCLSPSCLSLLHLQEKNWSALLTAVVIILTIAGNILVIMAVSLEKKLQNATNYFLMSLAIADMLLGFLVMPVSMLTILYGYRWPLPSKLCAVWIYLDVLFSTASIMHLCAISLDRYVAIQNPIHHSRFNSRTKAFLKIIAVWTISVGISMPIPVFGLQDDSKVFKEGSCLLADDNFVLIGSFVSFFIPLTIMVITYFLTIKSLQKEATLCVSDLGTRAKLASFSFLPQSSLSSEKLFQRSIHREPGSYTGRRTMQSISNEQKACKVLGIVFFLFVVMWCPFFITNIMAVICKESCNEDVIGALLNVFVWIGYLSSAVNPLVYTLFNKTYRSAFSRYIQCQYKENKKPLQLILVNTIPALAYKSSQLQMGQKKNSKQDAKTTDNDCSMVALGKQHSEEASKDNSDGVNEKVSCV
Description: as §2, §3, §4, §5, §6

[1] = Body weight change in MV-4-11 xenograft mice; type: in vivo, female BALB/c nude mice; settings: all GFH009 treatment groups; through Day 28
Procedure: Figure 7 Effect of GFH009 on body weight change in MV-4-11 xenografts. Body weight change of MV-4-11 xenograft (Figure 6) are expressed as mean ± SEM. ^* […], ^** P < 0.01, ^**** P < 0.0001, two-way ANOVA with Dunnett’s multiple comparisons test analysis compared to the vehicle-treated (control) group.
as §1
Relative change in body weight (RCBW) was determined as RCBW (%) = (Bwi – BW0)/BW0 × 100, where Bwi is body weight of a given mouse on a given day, and BW0 is initial body weight on the day they were assigned to a treatment group.

COC[C@@H](C)NC1CCC(Nc2cc(-c3csc(NCC4(C#N)CCOCC4)n3)c(Cl)cn2)CC1 (stereo partly drawn) [GFH009]
Tumor total volume at 10.0 mg/kg (MV-4-11 xenograft; 10.0 mg/kg i.v., through day 29): consistent reduction in total volume | Tumor growth (total volume) compared to the vehicle control (MV-4-11 xenograft; i.v., GFH009 maleate 2.5, 5.0, 10.0 mg/kg QW or BIW, enitociclib 10.0 mg/kg QW, 3 weeks): tumor growth inhibition | Selectivity vs. CDK9 (CDK13/cyclin K): > 1000 | Remaining enzymatic activity (%) after exposure to GFH009 (CDK13/cyclin K; 1 µM): 93% | Remaining enzymatic activity (%) after exposure to GFH009 (CDK13/cyclin K; 10 µM): 88% | IC50 (CDK9/cyclin T1(h)): 9 nM | % Agonist Effect @ Max Dose (12 µM) (AD2 (adenosine)): 21.7% | % Agonist Effect @ Max Dose (12 µM) (op-k (opioid)): 21.57% | % Agonist Effect @ Max Dose (12 µM) (ETA (endothelin)): −0.08% | % Agonist Effect @ Max Dose (12 µM) (D2 (dopamine)): 3.66% | % Agonist Effect @ Max Dose (12 µM) (H2 (histamine)): −0.03% | % Agonist Effect @ Max Dose (12 µM) (M2 (muscarinic Ach)): −0.63% | % Agonist Effect @ Max Dose (12 µM) (CCKa): −0.4% | % Agonist Effect @ Max Dose (12 µM) (op-m (opioid)): 0.71% | % Agonist Effect @ Max Dose (12 µM) (M3 (muscarinic Ach)): 0.49% | % Agonist Effect @ Max Dose (12 µM) (op-d (opioid)): −0.98% | % Agonist Effect @ Max Dose (12 µM) (5-HT2A (serotonin)): −1.68% | Relative change in body mass (RCBW%) vs initial [1]: ≤ 5%
